Legend:
PEO1 [1] = assay: Synergistic cytotoxicity against human PEO1 cells assessed as combination index at 44 uM after 72 hrs in presence of 1 uM of cisplatin by ATPlite assay; type: functional
PEO1 [2] = assay: Synergistic cytotoxicity against human PEO1 cells assessed as combination index at 44 uM after 72 hrs in presence of 10000 uM of paclitaxel by ATPlite assay; type: functional
PEO1 [3] = assay: Synergistic cytotoxicity against human PEO1 cells assessed as combination index at 44 uM after 72 hrs in presence of 100 uM of paclitaxel by ATPlite assay; type: functional
PEO1 [4] = assay: Cytotoxicity against human PEO1 cells assessed as inhibition of cell growth after 72 hrs by ATPlite assay; type: functional, cell-based; settings: PEO1, 72 h
PEO1 [5] = assay: Synergistic cytotoxicity against human PEO1 cells assessed as combination index at 44 uM after 72 hrs in presence of 2 uM of cisplatin by ATPlite assay; type: functional
PEO1 [6] = assay: Synergistic cytotoxicity against human PEO1 cells assessed as combination index at 44 uM after 72 hrs in presence of 0.1 uM of cisplatin by ATPlite assay; type: functional
PEO1 [7] = assay: Synergistic cytotoxicity against human PEO1 cells assessed as combination index at 44 uM after 72 hrs in presence of 1 uM of paclitaxel by ATPlite assay; type: functional
PEO1 [8] = assay: Synergistic cytotoxicity against human PEO1 cells assessed as combination index at 44 uM after 72 hrs in presence of 5 uM of cisplatin by ATPlite assay; type: functional
PEO1 [9] = assay: Synergistic cytotoxicity against human PEO1 cells assessed as combination index at 44 uM after 72 hrs in presence of 1000 uM of paclitaxel by ATPlite assay; type: functional
PEO1 [10] = assay: Synergistic cytotoxicity against human PEO1 cells assessed as combination index at 44 uM after 72 hrs in presence of 10 uM of paclitaxel by ATPlite assay; type: functional
PEO1 [11] = assay: Synergistic cytotoxicity against human PEO1 cells assessed as combination index at 44 uM after 72 hrs in presence of 10 uM of cisplatin by ATPlite assay; type: functional

SMILES	CI (PEO1 [1])	CI (PEO1 [2])	CI (PEO1 [3])	IC50 (PEO1 [4]) [µM]	CI (PEO1 [5])	CI (PEO1 [6])	CI (PEO1 [7])	CI (PEO1 [8])	CI (PEO1 [9])	CI (PEO1 [10])	CI (PEO1 [11])
CC1=C(C#N)C(O)=NC(=O)/C1=C\c1ccc(-c2ccccc2)o1	1.08	287.79	4.68	44	1.01	0.81	0.87	1.03	29.58	1.05	0.69
CC(=O)O[C@H]1C(=O)[C@@]2(C)[C@H]([C@H](OC(=O)c3ccccc3)[C@]3(O)C[C@H](OC(=O)[C@H](O)[C@@H](NC(=O)c4ccccc4)c4ccccc4)C(C)=C1C3(C)C)[C@]1(OC(C)=O)CO[C@@H]1C[C@@H]2O [PACLITAXEL]	–	–	–	7	–	–	–	–	–	–	–

Source: ChEMBL document CHEMBL4806965, “Nek6 kinase inhibitors useful for the treatment of solid tumors” (2019)
